The source of these data is PubChem BioAssay AID720600 (Broad Institute, 2013).

Results filed as inconclusive are left out.

For the test, the system named is SNB-19 viability, Alamar Blue fluorescence, 8-48 h. The test is described as follows: cytotoxicity in SNB-19 CNS tumor cells – cell-based, Alamar Blue fluorescence, 8/24/48 h, dry powder, HRAS target identification, dose response (AID 720600).

For the compound `COc1ccc(N(C(=O)CCl)C(C(=O)NCCc2ccccc2)c2cccs2)cc1Cl` (configuration not stated), the AC50 – broadly, the concentration giving half of the maximal activity seen – (measured here: 8 h treatment) stood at 77.1 nM; the AC50 (measured here: 24 h treatment) was found to be 112 nM; the AC50 (measured here: 48 h treatment) turned out to be 149 nM.
Regarding `C#CCCCC(=O)NCCOCCOCCOc1ccc(N(C(=O)CCl)C(C(=O)NCCc2ccccc2)c2cccs2)cc1Cl` (configuration not stated), the AC50 by setting is: (measured here: 24 h treatment) 946 nM; (measured here: 48 h treatment) 2780 nM.
`CC(C)(C)OC(=O)NCCOCCOCCOc1ccc(N(C(=O)CCl)C(C(=O)NCCc2ccccc2)c2cccs2)cc1Cl` (configuration not stated): the AC50 is 296 nM (measured here: 24 h treatment) and 353 nM (measured here: 48 h treatment).
